Several values for one entry are separate records, joined by “and”; a condition that tells them apart may be missing. Equal entries are not always repeated. Entries after “also recorded” stand apart in the source; their conditions may differ. Where two headings read alike, the source gives them in different places.
Columns and labels:
retina [1] = test system: retina
anterior capsule [2] = experiment: BBG-assisted continuous curvilinear capsulorhexis in a human eye; format: in vivo
Protocol: A person with a white mature cataract underwent BBG-assisted CCC and phacoemulsification with intraocular lens (IOL) implantation in August 2004. The patient had no other ocular diseases, such as glaucoma, uveitis or corneal disorders. Coomassie® BBG 250 (Sigma-Aldrich, St. Louis, USA) was dissolved in intraocular irrigating solution (OPEGUARD®-MA; Senjyu Pharmaceutical Co., Ltd., Osaka, Japan) at a dose of 0.25 mg/ml and sterilized with a syringe filter. The BBG solution was gently injected into the anterior chamber and then washed out immediately with balanced salt solution (BSS).

ILM [3] = experiment: BBG in ILM staining, effects and safety in human eyes (first attempt, 16 eyes); format: in vivo
Protocol: Sixteen eyes of 16 patients with a macular hole (MH) and epiretinal membranes (ERMS) were recruited from the outpatient unit of Kyushu University Hospital (Fukuoka, Japan) between August and September 2004. Patients with ocular diseases such as glaucoma, uveitis, and corneal disorder were excluded. This study was carried out with the approval from the appropriate institutional Ethics Committee and was performed in accordance with the ethical standards laid down in the 1989 Declaration of Helsinki. The possible advantages and risks of the present treatment were explained to the patients before surgery and informed consent was obtained from all patients. […] The final concentration of BBG was 0.25 mg/ml. […] Removal of the ILM was performed using ILM forceps (D.O.R.C.; Dutch Ophthalmic Research Center International b.v., Netherlands).
Postoperative examinations included slitlamp microscopy, opthalmoscopy, best corrected visual acuity (BCVA) and intraocular pressure. The visual field was evaluated with Humphrey Field Analyzer II (Humphrey Systems, Dublin, Calif., USA) after 2 months.

[4] = Osmolarity and pH of the BBG solution; format: physicochemical
corneal endothelium = conditions: single anterior chamber injection; for apoptotic cell death (TUNEL) in corneal stromal cells, endothelium, ciliary body and lens cells: BBG 0.01-10 mg/ml, ICG 5 mg/ml
retina [5] = conditions: rat, in vivo
ILM [6] = test system: ILM
Protocol: Since ILM peeling is impossible in rat eyes, the inventors examined the ability of BBG to stain the ILM in primate eyes. Two eyes from two cynomolgus monkeys at 3 years of age were used in this study. The animals were restrained in a squeeze cage and injected intramuscularly in the thigh with 20 mg/kg of ketamine hydrochloride (Sankyo Yell Pharmaceutical Products Co. Ltd., Japan) for general anesthesia. The monkeys were subsequently transported to an operating room. Surgery consisted of a standard three port pars plana vitrectomy with induction of a posterior vitreous detachment by suction with a vitrectomy cutter using triamcinolone acetonide injection for vitreous visualization.
Ten milligrams of BBG were dissolved in 20 ml of intraocular irrigating solution and sterilized with a syringe filter. The final concentration of BBG was 0.5 mg/ml. The prepared BBG solution (0.5 ml) was then injected gently into the vitreous cavity and washed out immediately with balanced salt solution (BSS Plus (Registered trademark), Santen, Osaka, Japan). Removal of the ILM was performed using ILM forceps.

ILM [7] = test system: ILM; remark: listed apart in the source
anterior capsule [8] = experiment: Capsular staining ability of BBG in pig eyes
Protocol: The capsular staining ability of BBG was assessed in pig eyes using graded concentrations of the dye.
The pig eyes were obtained from a local slaughterhouse and transported to the laboratory on ice. The extraocular muscles and other connective tissues were carefully cut off and the eyes were placed on the operation chamber. The BBG solution was prepared using the following method. Twenty milligrams of BBG (Coomassie. brilliant blue G 250; Signa-Aldrich, St. Louis, USA) were dissolved in 10 ml of intraocular irrigating solution (OPEGUARD.-MA, Senjyu Pharmaceutical Co., Ltd., Osaka, Japan) and sterilized with a syringe filter (Minisart. Sartorius AG, Goettingen, Germany). Under the operation microscope, the capsular staining by BBG was examined as follows. […] The anterior chamber was immediately irrigated by enhanced balanced salt solution (BSS Plus®, Santen Pharmaceuticals, Japan) and the excessive dye was easily washed out.
To deepen the anterior chamber, 1% sodium hyaluronate (Healon®, Pharmacia, Uppsala, Sweden) was injected. A CCC was initiated by preparing a small triangular anterior capsular flap with a bent 26-gauge disposable needle mounted on a viscoelastic syringe. The CCC was completed using a cystotome or capsulorhexis forceps.

retina [9] = conditions: rat, in vivo; remark: listed apart in the source
Protocol: Brown Norway rats (n=78 males, 8 weeks old, Kyudo, Fukuoka, Japan) were anesthetized with an intraperitoneal injection of ketamine hydrochloride at a dose of 75 mg/kg body weight. One eye from each animal (total of n=6 per dose group) was vitrectomized using 0.05 ml of pure SF6 gas as described previously. Following the gas injection, 0.05 ml of BBG solution was injected into the vitreous cavity of each vitrectomized eye using a microscope for enhanced magnification during surgery. […] Twenty-four sham-operated eyes (injected with SF6 followed by 0.05 ml of intraocular irrigating solution) were used as controls.
The eyes were enucleated on day 14 and at 2 months post-operation and fixed in 1% glutaraldehyde and 1% paraformaldehyde in PBS. The specimens were postfixed in veronal acetate buffer osmium tetroxide (2%), dehydrated in ethanol and water, and embedded in Epon. Ultrathin sections were cut from blocks and mounted on copper grids.

anterior capsule [10] = conditions: stated for comparison, no test described; cited from earlier work
cornea = experiment: Anterior chamber injection of dyes in rats: light microscopy (HE); format: in vivo, Brown Norway rats; conditions: single anterior chamber injection; BBG 0.01-10 mg/ml, ICG 5 mg/ml, TB 1 mg/ml; 2 weeks and 2 months
Excerpt: The eyes were fixed in 4% paraformaldehyde and cut in half, embedded in paraffin, deparaffinized in xylene, rehydrated in ethanol, and washed in phosphate-buffered saline (PBS). The 4 μm thick sections were stained by hematoxylin and eosin, and observed by light microscope.

corneal cells = experiment: Anterior chamber injection of dyes in rats: transmission electron microscopy; conditions: single anterior chamber injection; BBG 10 mg/ml, ICG 5 mg/ml, TB 1 mg/ml
Protocol: Brown Norway rats (Kyudo, Fukuoka, Japan), postnatal 8 weeks, were studied as follows. The rats were anesthetized with an intraperitoneal injection of pentobarbital and their pupils were dilated with topical 1% tropicamide and 2.5% phenylephrine hydrochloride. The anterior chamber was entered through the clear cornea with a 30-gauge needle mounted on a syringe. Then a single anterior chamber injection was performed with each dye, BBG (10, 1, 0.5, 0.25, 0.1 and 0.01 mg/ml), ICG (5 mg/ml), trypan blue (1 mg/ml), and the control OPEGUARD. solution (n=6 for each dye, total 54 eyes).
The dye remained in the anterior chamber and was followed by biomicroscopic examination for 2 months. The eyes were enucleated at 2 weeks and 2 months after operation. The eyes were analyzed by light microscopy, transmission and scanning electron microscopy.
The eyes were enucleated and the anterior segments were fixed in 1% glutaraldehyde and 1% paraformaldehyde in PBS. The specimens were postfixed in veronal acetate buffer osmium tetroxide (2%), dehydrated in ethanol and water, and embedded in Epon. Ultrathin sections were cut from blocks and mounted on copper grids.

[11] = 0.25 mg/ml, 0.5 ml intravitreal, washed out immediately
[12] = individual patient case, BBG 0.25 mg/ml
[13] = BBG 10 mg/ml in intraocular irrigating solution (OPEGUARD-MA)

CCOc1ccc(Nc2ccc(/C(=C3C=C/C(=[N+](/CC)Cc4cccc(S(=O)(=O)[O-])c4)C=C/3C)c3ccc(N(CC)Cc4cccc(S(=O)(=O)[O-])c4)cc3C)cc2)cc1.[Na+] [BBG, Brilliant Blue G]
apoptotic cell death of retinal cells (retina [1]; all BBG dose groups, after 2 months): had not undergone apoptotic cell death | apoptotic cell death in retina (TUNEL) (retina [1]; intravitreal 10 mg/ml, day 14): one case of apoptotic cell death was observed from among ten sections | apoptotic cell ratio compared with control sections (retina [1]; intravitreal 10 mg/ml, day 14): not significantly different | TUNEL staining in the retina (retina [1]; intravitreal lower doses, day 14): no TUNEL staining was observed | visibility of the anterior capsule during CCC (anterior capsule [2]; 0.25 mg/ml into anterior chamber, immediately irrigated, white mature cataract): clearly visible | corneal endothelial cell loss (anterior capsule [2]; after 2 months): 0.8% | visual acuity after surgery (anterior capsule [2]; improved from light perception (LP)): 20/20 | acute toxicity (corneal edema, severe inflammation or elevated intraocular pressure) (anterior capsule [2]; the following day): no acute toxicity | staining of the ERMS (ILM [3]; 0.25 mg/ml): could not be confirmed | ILM staining (ILM [3]; [11]): stained a light blue color | elevation of intraocular pressure (ILM [3]; 16 eyes, BBG 0.25 mg/ml): None of the patients had an elevation of intraocular pressure | visual acuity (ILM [3]; 16 eyes, MH and ERM, BBG 0.25 mg/ml assisted peeling): recovered in all cases | Postop. Retinal status (ILM [3]; [12]): MH closed; also recorded: Fold (−); also recorded: Macular | complications (ILM [3]; [12]): Peripheral (2×) and none (13×) and Vitreous | Postop. BCVA (ILM [3]; individual patient case, BBG 0.25 mg/ml, follow up 2-4 months): 20/50 (2×) and 20/63 (2×) and 20/25 (2×) and 20/32 (4×) and 20/40 (3×) and 20/16 and 20/20 | other adverse effects due to BBG (ILM [3]; within the observation period): No other adverse effects | Osmolarity ([4]; BBG 0.01 mg/ml in OPEGUARD-MA): 298 mOsm/KgH20 | pH ([4]; BBG 0.01 mg/ml in OPEGUARD-MA): 7.41 | Osmolarity ([4]; BBG 0.1 mg/ml in OPEGUARD-MA): 298 mOsm/KgH20 | pH ([4]; BBG 0.1 mg/ml in OPEGUARD-MA): 7.41 | osmolarity of prepared BBG solution ([4]; BBG 0.25 mg/ml in OPEGUARD-MA): 289 mOsm | pH of prepared BBG solution ([4]; BBG 0.25 mg/ml in OPEGUARD-MA): 7.44 | Osmolarity ([4]; BBG 1.0 mg/ml in OPEGUARD-MA): 300 mOsm/KgH20 | pH ([4]; BBG 1.0 mg/ml in OPEGUARD-MA): 7.42 | Osmolarity [4, 13]: 310 mOsm/KgH20 | pH [4, 13]: 7.41 | apoptotic cell death (TUNEL) in corneal stromal cells, endothelium, ciliary body and lens cells (corneal endothelium): no TUNEL staining was observed | infiltration of inflammatory cells (light microscopy) (retina [5]): no infiltration of inflammatory cells was observed | toxic effects such as corneal edema, severe retinal edema, or endophthalmitis (surgical microscopy) (retina [5]): no toxic effects | ILM staining (ILM [6]; 0.5 mg/ml, 0.5 ml into vitreous cavity, washed out immediately): stained a light blue color | concentration of BBG required to stain the ILM of primates in comparison with ICG (ILM [6]; ratio to ICG concentration): about 1/10 | staining of the ERM in ERM cases (ILM [7]; 0.25 mg/ml): could not be confirmed | ILM staining in MH cases (ILM [7]; [11]): stained a bright blue color instantly | staining of the ILM of the area where the ERM had been removed (ILM [7]; 0.25 mg/ml, second injection after ERM peeling): well stained | removal of the ILM including the ERM during surgery (ILM [7]; 20 eyes): removed from all 20 eyes successfully | patients with improvement of 2 or more lines on the Snellen chart (ILM [7]; ERM cases, eight of 10 patients): 80% | mean foveal thickness of retina measured with OCT, postoperative (ILM [7]; ERM cases, preoperative 454.7±141.3 μm): 249.4±71.3 μm | postoperative median BCVA (ILM [7]; ERM cases, preoperative median 20/50): 20/32 | eyes with visual acuity improved by 2 or more Snellen lines (ILM [7]; MH cases, 9 of 10 eyes): 90% | postoperative median BCVA (ILM [7]; MH cases, preoperative median 20/100): 20/32 | closure of MH (ophthalmoscopy and OCT) (ILM [7]; all 10 MH cases): completely closed anatomically | complication: protraction of vitreous hemorrhage (ILM [7]; in vivo): one case | complications: iatrogenic peripheral retinal breaks (ILM [7]; in vivo): two cases | elevation of IOP (ILM [7]; in vivo): 26 mmHg | other adverse effects such as retinal pigment epithelium (RPE) atrophy (ILM [7]; in vivo): No other adverse effects | Postop. Retinal status (ILM [7]; individual MH case): MH closed | concentration providing satisfactory staining of the anterior capsule (anterior capsule [8]): 0.25 mg/mL | capsular staining (anterior capsule [8]; 0.1 mg/ml and 0.01 mg/ml): obscure | staining of the anterior capsule (anterior capsule [8]; 0.25 mg/ml to 1 mg/ml, staining deepened with concentration): stained the anterior capsule homogenously | minimal concentration needed to produce high quality staining with clear visualization (anterior capsule [8]; pig eye anterior capsule): 0.25 mg/mL | changes in inner nuclear, outer nuclear and retinal pigment epithelial cell layers (TEM) (retina [9]): no remarkable changes were observed

CC1(C)C(/C=C/C=C/C=C/C=C2\N(CCCCS(=O)(=O)O)c3ccc4ccccc4c3C2(C)C)=[N+](CCCCS(=O)(=O)[O-])c2ccc3ccccc3c21 [ICG, Indocyanine green]
concentration required for staining of the anterior capsule (comparison dyes) (anterior capsule [10]): 5 mg/mL | changes in hematoxilin and eosin stained sections of the cornea (cornea): no remarkable changes | ultrastructure of corneal cells and endothelium (TEM) (corneal cells): some endothelial cells demonstrated signs of mitochondrial swelling | apoptotic cell death (TUNEL) in corneal stromal cells, endothelium, ciliary body and lens cells (corneal endothelium): no apparent apoptotic cell death was detected

Cc1cc(-c2ccc(/N=N/c3c(S(=O)(=O)O)cc4cc(S(=O)(=O)O)cc(N)c4c3O)c(C)c2)ccc1/N=N/c1c(S(=O)(=O)O)cc2cc(S(=O)(=O)O)cc(N)c2c1O [TB, Trypan Blue]
concentration required for staining of the anterior capsule (comparison dyes) (anterior capsule [10]): 1 mg/mL | apoptotic cell death of corneal endothelium, share of the total endothelial cells (corneal endothelium; TB 1 mg/ml): 2%

From US7731941B2, “Staining composition for staining an ophthalmic membrane” (priority 2004, dated 2010)
